# Measured values: ChEMBL document CHEMBL5113530, “Butyrylation Meets Adipogenesis-Probed by a p300-Catalyzed Acylation-Specific Small Molecule Inhibitor: Implication in Anti-obesity Therapy” (J Med Chem, 2022)
# Active and inactive are the calls of the source. No cut-off for these calls is given here.
# How the values were obtained:
# [1] = tested on: Histone acetyltransferase p300 (Homo sapiens), Q09472 [C1438A]; experiment: Inhibition of His-tagged EP300 C1438A mutant catalytic domain catalyzed butyrylation (unknown origin) expressed in Escherichia coli BL21 (DE3) using Histone H3 as substrate at 25 uM preincubated with compound for 10 mins followed by butyryl-CoA addition and measured after 10 mins by Western blot analysis; settings: time 20.0 min
# [2] = Stability of compound in mouse 3T3-L1 cells measured after 6 days by LC-ESI-MS analysis; assay type: ADME, cell-based; settings: 3t3-l1, 144 h, time 6 day
# [3] = tested on: 3T3-L1; experiment: Anti-adipogenic activity against mouse 3T3-L1 cells assessed as downregulation of PPARG mRNA expression at 25 uM measured after 7 days by qRT-PCR analysis; assay type: functional, cell-based; settings: time 7.0 day
# [4] = tested on: 3T3-L1; experiment: Inhibition of H3K23 butyrylation in mouse 3T3-L1 cells by Immunoblotting analysis; assay type: functional, cell-based
# [5] = tested on: Mus musculus; experiment: Anti-obesity activity in C57BL6/J mouse model of high fat diet-induced obesity assessed as daily food consumption measured per day per mouse at 50 mg/kg (reference value: 1.95547 +/- 0.23142 g); assay type: functional
# [6] = tested on: Mus musculus; experiment: Anti-obesity activity in C57BL6/J mouse model of high fat diet-induced obesity assessed as reduction in adipocyte hypertrophy at 50 mg/kg by hematoxylin and eosin staining based assay; assay type: functional, organism-based
# [7] = tested on: Mus musculus; experiment: Anti-obesity activity in C57BL6/J mouse model of high fat diet-induced obesity assessed as reduction in hepatic steatosis at 50 mg/kg by hematoxylin and eosin staining based assay; assay type: functional, organism-based
# [8] = tested on: Mus musculus; experiment: Anti-obesity activity in C57BL6/J mouse model of high fat diet-induced obesity assessed as reduction in H4K5 butyrylation level in epididymal fat pad at 50 mg/kg by Immunoblotting analysis; assay type: functional, organism-based
# [9] = tested on: Mus musculus; experiment: Anti-obesity activity in db/db mouse assessed as reduction in hepatic steatosis at 50 mg/kg, po qd administered for 30 days by hematoxylin and eosin staining based assay; assay type: functional, organism-based; settings: time 30.0 day
# [10] = tested on: Mus musculus; experiment: Anti-obesity activity in db/db mouse assessed as reduction in H4K5 butyrylation level in liver at 50 mg/kg, po qd administered for 30 days by DAPI staining based immunofluorescence microscopic analysis; assay type: functional, organism-based; settings: time 30.0 day
# [11] = tested on: Mus musculus; experiment: Anti-obesity activity in db/db mouse assessed as reduction in H4K5 butyrylation level in epididymal fat pad at 50 mg/kg, po qd administered for 30 days by Immunoblotting analysis; assay type: functional, organism-based; settings: time 30.0 day
# [12] = Mutagenicity in Salmonella typhimurium TA97a assessed as number of revertants measured per plate at 10 to 1000 incubated for 48 hrs in presence of rat liver S9 fraction by plate incorporation assay; assay type: toxicity; settings: salmonella enterica subsp. enterica serovar typhimurium, s9, 48 h, dose 10-1000 µg
# [13] = Mutagenicity in Salmonella typhimurium TA98 assessed as number of revertants measured per plate at 10 to 1000 incubated for 48 hrs in presence of rat liver S9 fraction by plate incorporation assay; assay type: toxicity; settings: salmonella enterica subsp. enterica serovar typhimurium, s9, 48 h, dose 10-1000 µg
# [14] = Mutagenicity in Salmonella typhimurium TA100 assessed as number of revertants measured per plate at 10 to 1000 incubated for 48 hrs in presence of rat liver S9 fraction by plate incorporation assay; assay type: toxicity; settings: salmonella enterica subsp. enterica serovar typhimurium, s9, 48 h, dose 10-1000 µg
# [15] = Toxicity in male Sprague-Dawley rat assessed as effect on body weight at 250 mg/kg, po administered as single dose measured on day 1 (reference value: 174.75 +/- 7.61 g); assay type: organism-based; settings: in vivo, 24 h, time 1 day
# [16] = Toxicity in male Sprague-Dawley rat assessed as effect on body weight at 250 mg/kg, po administered as single dose measured on day 14 (Rvb =231.13 +/- 18.38 g); assay type: organism-based; settings: in vivo, 336 h, time 14 day
# [17] = Toxicity in male Sprague-Dawley rat assessed as effect on body weight at 500 mg/kg, po administered as single dose measured on day 14 (Rvb =231.13 +/- 18.38 g); assay type: organism-based; settings: in vivo, 336 h, time 14 day
# [18] = Toxicity in male Sprague-Dawley rat assessed as effect on body weight at 1000 mg/kg, po administered as single dose measured on day 14 (Rvb =231.13 +/- 18.38 g); assay type: organism-based; settings: in vivo, 336 h, time 14 day
# [19] = Toxicity in female Sprague-Dawley rat assessed as effect on body weight at 1000 mg/kg, po administered as single dose measured on day 1 (Rvb =152.21 +/- 6.58 g); assay type: organism-based; settings: in vivo, 24 h, time 1 day
# [20] = Toxicity in female Sprague-Dawley rat assessed as effect on body weight at 250 mg/kg, po administered as single dose measured on day 14 (Rvb =171.5 +/- 6.65 g); assay type: organism-based; settings: in vivo, 336 h, time 14 day
# [21] = Toxicity in male Sprague-Dawley rat assessed as average food intake at 1000 mg/kg, po administered as single dose measured on day 1 (Rvb =20.38 g/day); assay type: organism-based; settings: in vivo, 24 h, time 1 day
# [22] = Toxicity in male Sprague-Dawley rat assessed as average food intake at 500 mg/kg, po administered as single dose measured on day 14 (Rvb =21.24 g/day); assay type: organism-based; settings: in vivo, 336 h, time 14 day
# [23] = Toxicity in male Sprague-Dawley rat assessed as average food intake at 1000 mg/kg, po administered as single dose measured on day 14 (Rvb =21.24 g/day); assay type: organism-based; settings: in vivo, 336 h, time 14 day
# [24] = Toxicity in female Sprague-Dawley rat assessed as average food intake at 250 mg/kg, po administered as single dose measured on day 1 (Rvb =17.84 g/day); assay type: organism-based; settings: in vivo, 24 h, time 1 day
# [25] = Toxicity in female Sprague-Dawley rat assessed as average food intake at 500 mg/kg, po administered as single dose measured on day 7 (Rvb =15.65 g/day); assay type: organism-based; settings: in vivo, 168 h, time 7 day
# [26] = Toxicity in female Sprague-Dawley rat assessed as average food intake at 1000 mg/kg, po administered as single dose measured on day 7 (Rvb =15.65 g/day); assay type: organism-based; settings: in vivo, 168 h, time 7 day
# [27] = Toxicity in male Sprague-Dawley rat assessed as average water intake measured per day at 250 mg/kg, po administered as single dose measured on day 1 (Rvb =32 ml/day); assay type: organism-based; settings: in vivo, 24 h, time 1 day
# [28] = Toxicity in male Sprague-Dawley rat assessed as average water intake measured per day at 1000 mg/kg, po administered as single dose measured on day 1 (Rvb =32 ml/day); assay type: organism-based; settings: in vivo, 24 h, time 1 day
# [29] = Toxicity in male Sprague-Dawley rat assessed as average water intake measured per day at 500 mg/kg, po administered as single dose measured on day 14 (Rvb =34 ml/day); assay type: organism-based; settings: in vivo, 336 h, time 14 day
# [30] = Toxicity in male Sprague-Dawley rat assessed as average water intake measured per day at 1000 mg/kg, po administered as single dose measured on day 14 (Rvb =34 ml/day); assay type: organism-based; settings: in vivo, 336 h, time 14 day
# [31] = Toxicity in female Sprague-Dawley rat assessed as average water intake measured per day at 250 mg/kg, po administered as single dose measured on day 1 (Rvb =25 ml/day); assay type: organism-based; settings: in vivo, 24 h, time 1 day
# [32] = Toxicity in female Sprague-Dawley rat assessed as average water intake measured per day at 1000 mg/kg, po administered as single dose measured on day 7 (Rvb =21 ml/day); assay type: organism-based; settings: in vivo, 168 h, time 7 day
# [33] = Toxicity in female Sprague-Dawley rat assessed as average water intake measured per day at 500 mg/kg, po administered as single dose measured on day 14 (Rvb =26 ml/day); assay type: organism-based; settings: in vivo, 336 h, time 14 day
# Histone acetyltransferase p300 (Homo sapiens), Q09472 [C1438A], sequence (Q09472 whole entry C1438A, the tested form may be a part): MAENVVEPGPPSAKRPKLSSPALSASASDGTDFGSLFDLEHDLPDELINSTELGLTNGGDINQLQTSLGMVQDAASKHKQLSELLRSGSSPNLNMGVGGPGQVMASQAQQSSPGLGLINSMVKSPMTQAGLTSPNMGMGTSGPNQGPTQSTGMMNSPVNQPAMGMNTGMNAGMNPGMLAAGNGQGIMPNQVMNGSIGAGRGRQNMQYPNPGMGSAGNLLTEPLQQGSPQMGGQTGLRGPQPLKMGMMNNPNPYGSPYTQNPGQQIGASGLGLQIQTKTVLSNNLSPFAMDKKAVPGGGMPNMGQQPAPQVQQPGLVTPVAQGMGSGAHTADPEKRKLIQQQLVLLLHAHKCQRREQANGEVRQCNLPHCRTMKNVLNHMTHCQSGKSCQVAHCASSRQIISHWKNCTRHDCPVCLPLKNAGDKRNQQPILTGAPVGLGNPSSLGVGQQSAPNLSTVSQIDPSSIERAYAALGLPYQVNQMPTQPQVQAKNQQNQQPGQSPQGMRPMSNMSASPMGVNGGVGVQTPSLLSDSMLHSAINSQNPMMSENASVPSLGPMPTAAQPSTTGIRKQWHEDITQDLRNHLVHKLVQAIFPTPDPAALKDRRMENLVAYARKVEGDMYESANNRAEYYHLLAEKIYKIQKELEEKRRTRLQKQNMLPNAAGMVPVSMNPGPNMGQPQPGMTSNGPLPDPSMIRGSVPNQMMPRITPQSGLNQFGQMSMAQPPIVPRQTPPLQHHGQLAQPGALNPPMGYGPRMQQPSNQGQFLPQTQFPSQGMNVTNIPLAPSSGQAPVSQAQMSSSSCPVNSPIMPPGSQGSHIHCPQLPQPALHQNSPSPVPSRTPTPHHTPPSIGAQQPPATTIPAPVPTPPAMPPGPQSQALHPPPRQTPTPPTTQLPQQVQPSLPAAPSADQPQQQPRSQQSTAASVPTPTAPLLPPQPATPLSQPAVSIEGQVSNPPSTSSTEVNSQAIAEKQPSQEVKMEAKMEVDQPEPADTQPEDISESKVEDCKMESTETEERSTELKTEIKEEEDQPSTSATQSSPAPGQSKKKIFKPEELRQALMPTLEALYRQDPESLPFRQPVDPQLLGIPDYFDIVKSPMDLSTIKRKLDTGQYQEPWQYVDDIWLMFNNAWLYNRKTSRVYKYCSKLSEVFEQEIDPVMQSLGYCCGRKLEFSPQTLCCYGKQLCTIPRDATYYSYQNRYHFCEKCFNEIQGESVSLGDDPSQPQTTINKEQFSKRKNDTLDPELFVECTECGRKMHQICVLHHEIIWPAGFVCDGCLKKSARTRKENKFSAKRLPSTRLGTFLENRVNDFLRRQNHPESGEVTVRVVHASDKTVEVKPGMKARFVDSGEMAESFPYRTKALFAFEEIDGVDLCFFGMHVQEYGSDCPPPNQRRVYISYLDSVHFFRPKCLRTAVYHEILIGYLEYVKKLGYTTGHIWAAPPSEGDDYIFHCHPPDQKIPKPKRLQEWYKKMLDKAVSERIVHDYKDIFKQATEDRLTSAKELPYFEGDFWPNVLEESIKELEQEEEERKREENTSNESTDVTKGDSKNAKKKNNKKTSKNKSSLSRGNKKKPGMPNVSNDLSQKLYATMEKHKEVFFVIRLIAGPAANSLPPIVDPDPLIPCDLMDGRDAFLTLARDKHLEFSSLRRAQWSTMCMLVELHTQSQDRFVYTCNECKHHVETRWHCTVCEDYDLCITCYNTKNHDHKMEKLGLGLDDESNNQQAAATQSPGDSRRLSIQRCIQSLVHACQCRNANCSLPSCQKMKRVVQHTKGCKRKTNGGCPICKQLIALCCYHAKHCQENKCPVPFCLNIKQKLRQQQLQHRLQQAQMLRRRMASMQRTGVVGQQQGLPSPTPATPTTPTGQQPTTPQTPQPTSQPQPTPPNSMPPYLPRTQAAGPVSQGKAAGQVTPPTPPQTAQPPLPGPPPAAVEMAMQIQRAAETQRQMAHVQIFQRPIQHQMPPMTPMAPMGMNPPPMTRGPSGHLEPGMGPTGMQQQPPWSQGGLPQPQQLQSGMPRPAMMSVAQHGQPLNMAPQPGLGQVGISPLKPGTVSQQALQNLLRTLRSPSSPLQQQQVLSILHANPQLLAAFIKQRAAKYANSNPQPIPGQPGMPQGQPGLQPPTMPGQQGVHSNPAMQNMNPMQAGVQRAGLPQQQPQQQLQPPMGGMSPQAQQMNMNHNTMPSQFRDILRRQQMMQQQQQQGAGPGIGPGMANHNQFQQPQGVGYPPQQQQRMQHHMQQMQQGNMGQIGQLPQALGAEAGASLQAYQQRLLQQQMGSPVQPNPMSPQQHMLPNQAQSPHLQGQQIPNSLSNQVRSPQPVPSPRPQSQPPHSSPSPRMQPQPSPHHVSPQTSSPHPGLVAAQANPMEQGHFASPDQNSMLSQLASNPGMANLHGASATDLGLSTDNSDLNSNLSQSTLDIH
smiles,measurement,setting,value
COc1ccc(C(=O)C2=C3OC(C)(C)[C@@H](CC=C(C)C)C[C@@]34C[C@@H](CC=C(C)C)C(C)(C)[C@](CC=C(C)C)(C2=O)C4=O)cc1OC,inhibition,[1],Active
same,Stability,[2],Stable
same,Activity,[3],Active
same,inhibition,[4],Active
same,Activity,[5],2.041 g
same,Activity,[6],Active
same,Activity,[7],Active
same,Activity,[8],Active
same,Activity,[9],Active
same,Activity,[10],Active
same,Activity,[11],Active
same,Activity,[12],Non-Toxic
same,Activity,[13],Non-Toxic
same,Activity,[14],Non-Toxic
same,Activity,[15],171.94 g
same,Activity,[16],244.21 g
same,Activity,[17],243.14 g
same,Activity,[18],226.19 g
same,Activity,[19],153.81 g
same,Activity,[20],176.35 g
same,Activity,[21],20.76 g/day
same,Activity,[22],23.29 g/day
same,Activity,[23],19.95 g/day
same,Activity,[24],20 g/day
same,Activity,[25],18.13 g/day
same,Activity,[26],17.82 g/day
same,Activity,[27],32 mL
same,Activity,[28],34 mL
same,Activity,[29],40 mL
same,Activity,[30],38 mL
same,Activity,[31],26 mL
same,Activity,[32],22 mL
same,Activity,[33],26 mL
